In general, IC50 refers to the point on the concentration scale where inhibition reaches its midpoint.

Structures are written as SMILES.

This is an account of results in the Kinase Knowledgebase extract (Sharma et al. 2016).

This experiment addresses PIK3CG (human) (UniProt P48736). As to the kind of experiment: Inhibition of PIK3CG Kinase Activity.

Chain of PIK3CG (human) (P48736 whole entry, looked up): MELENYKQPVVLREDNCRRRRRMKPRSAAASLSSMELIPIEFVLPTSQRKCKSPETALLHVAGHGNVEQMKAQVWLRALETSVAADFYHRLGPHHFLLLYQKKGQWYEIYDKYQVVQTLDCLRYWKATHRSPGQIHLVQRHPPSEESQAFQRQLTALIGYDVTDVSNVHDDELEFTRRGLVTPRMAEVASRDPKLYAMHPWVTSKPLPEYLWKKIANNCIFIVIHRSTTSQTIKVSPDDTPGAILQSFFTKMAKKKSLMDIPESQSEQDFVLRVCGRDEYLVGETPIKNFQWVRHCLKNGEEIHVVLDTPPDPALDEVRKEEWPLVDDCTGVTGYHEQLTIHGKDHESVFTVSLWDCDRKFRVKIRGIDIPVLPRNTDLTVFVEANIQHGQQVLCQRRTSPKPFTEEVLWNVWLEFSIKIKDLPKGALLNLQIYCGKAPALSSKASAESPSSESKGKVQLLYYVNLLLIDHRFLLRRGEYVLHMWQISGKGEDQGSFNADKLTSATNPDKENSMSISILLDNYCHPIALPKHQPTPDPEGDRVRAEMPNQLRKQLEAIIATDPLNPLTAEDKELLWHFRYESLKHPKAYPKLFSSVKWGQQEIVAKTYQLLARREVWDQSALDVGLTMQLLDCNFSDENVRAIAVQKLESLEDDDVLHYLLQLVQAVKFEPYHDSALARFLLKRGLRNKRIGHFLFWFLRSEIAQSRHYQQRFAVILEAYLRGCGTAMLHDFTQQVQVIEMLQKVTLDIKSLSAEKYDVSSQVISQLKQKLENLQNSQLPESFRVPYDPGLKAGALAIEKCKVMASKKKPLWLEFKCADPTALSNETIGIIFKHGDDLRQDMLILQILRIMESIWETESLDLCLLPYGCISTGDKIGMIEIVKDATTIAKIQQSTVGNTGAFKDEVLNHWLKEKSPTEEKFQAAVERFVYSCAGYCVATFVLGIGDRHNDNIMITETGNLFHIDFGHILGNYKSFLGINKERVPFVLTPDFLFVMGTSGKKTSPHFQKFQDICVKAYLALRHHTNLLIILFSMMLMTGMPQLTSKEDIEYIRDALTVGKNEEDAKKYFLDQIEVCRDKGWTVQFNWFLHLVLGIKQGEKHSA

On to `COc1ncc(-c2nn(C)c3nc(N)ncc23)cn1`, for which the IC50 is less than 2000 nM.
The result for `COc1cccc(OC)c1-c1nn(C)c2nc(N)ncc12` reads less than 2000 nM.
Molecule `Cn1nc(-c2ccc(OCC#N)c(F)c2)c2cnc(N)nc21` yielded an IC50 of less than 2000 nM.
Molecule `Cc1ccc(-c2nn(C)c3nc(N)ncc23)cc1[N+](=O)[O-]` returned an IC50 of less than 2000 nM.
As for `Cn1nc(-c2cc(F)c(O)c(C=O)c2)c2cnc(N)nc21`, the figure is less than 2000 nM; as for `COc1ccc(C(F)(F)F)cc1-c1nn(C)c2nc(N)ncc12`, less than 2000 nM.
`COc1cc(OC)c(-c2nn(C)c3nc(N)ncc23)cc1Cl` gave an IC50 of less than 2000 nM.
As for `Cn1nc(-c2cc(F)c3[nH]ccc3c2)c2cnc(N)nc21`, the figure is less than 2000 nM; as for `Cn1nc(-c2ccc3c(c2)OCCO3)c2cnc(N)nc21`, less than 2000 nM; as for `Cn1nc(-c2cc(F)cc(OCC(=O)O)c2)c2cnc(N)nc21`, less than 2000 nM.
In turn, `CNc1ncc2c(-c3ccc(OC)c(F)c3)nn(C)c2n1` gave an IC50 of less than 2000 nM.
In the case of `CCOc1ccc2ccccc2c1-c1nn(C)c2nc(N)ncc12`, the IC50 was less than 2000 nM.
As to `Cn1nc(-c2cc(Cl)c(O)cc2O)c2cnc(N)nc21`, the half-maximal inhibitory concentration (IC50) is less than 2000 nM.
`Cn1nc(-c2cccc(Br)c2OCc2ccccc2F)c2cnc(N)nc21`: the IC50 is less than 2000 nM.
Consider `COc1cc(OC(F)(F)F)ccc1-c1nn(C)c2nc(N)ncc12`, for which the IC50 is less than 2000 nM.
As for `COc1c(F)cc(-c2nn(C)c3nc(N)ncc23)cc1NC(C)=O`, the concentration for half-maximal inhibition (IC50) is less than 2000 nM.
`Cn1nc(-c2cc(Cl)c(O)c(Cl)c2)c2c(NCCN3CCOCC3)nc(N)nc21` returned a concentration for half-maximal inhibition (IC50) of less than 2000 nM.
As for `COc1ccc(OC)c(-c2nn(C)c3nc(N)ncc23)c1`, the figure is less than 2000 nM; as for `CC(C)Oc1ccc(-c2nn(C)c3nc(N)ncc23)cc1Cl`, less than 2000 nM.
As for `Cn1nc(-c2cc(Cl)c(O)c(Br)c2O)c2cnc(N)nc21`, the IC50 is less than 2000 nM.
`Cn1nc(-c2ccc(OCCN3CCOCC3)c(F)c2)c2cnc(N)nc21`: the IC50 was less than 2000 nM.
As for `Cn1nc(-c2cc(Cl)c(O)c(Cl)c2)c2cnc(N)nc21`, the figure is less than 2000 nM.
For `COc1cc(OC)c(S(=O)(=O)NC(C)C)cc1-c1nn(C)c2nc(N)ncc12`, the IC50 was less than 2000 nM.
In the case of `COc1ccc(-c2nn(C)c3nc(N)ncc23)c(OC)c1`, the concentration for half-maximal inhibition (IC50) was less than 2000 nM.
For `CC(C)Oc1ccc(-c2nn(C)c3nc(N)ncc23)cc1F`, the IC50 was less than 2000 nM.
